From ChEMBL document CHEMBL5726363, “Indoline compounds as aldosterone synthase inhibitors” (2017)

biological target: T1, Cytochrome P450 11B2, mitochondrial (Homo sapiens, UniProt P19099); assay: HTRF-Based Assay : V79 cell lines stably expressing the either the human CYP11B2 or the human CYP11B1 enzyme were generated using a standard transfection protocol. V79 cells were transfected with plasmids pTriEx3-Hygro-hCyp11B2 or pTriEx3-Hygro-hCyp11B1 using Lipofectamine2000 reagent. V79 cells that stably express the human CYP11B2 or human CYP11B1 enzyme were selected for and maintained in DMEM supplemented with 10% FBS and 400 μg/mL hygromycin for 2 weeks. Single cell clones were generated by infinite dilution in DMEM supplemented with 10% FBS and 400 μg/mL hygromycin until single colonies were obtained. Clones V79-hCYP11B2-CLE9 and V79-hCYP11B1-CL8C7, were determined to produce the most aldosterone and cortisol, respectively, and were selected for inhibitor screening. For testing of inhibitors, cells were harvested at 80% confluency with 0.05% Trypsan-EDTA, washed once in PBS, and reconstituted in DMEM+0.1% BSA media at a cell concentration of 600,000 cells/mL for the CYP11B2 assay and 280,000 cells/mL for the CYP11B1 assay. 25 μL of cells were added to a 384 well tissue culture treated plate and mixed with 0.3 μL of inhibitor or DMSO (1% final DMSO concentration) for 1 hour at 37° C., 5% CO2. After pre-incubation with inhibitor, the reaction was initiated by adding 5 μL of substrate (final concentration of 125 nM 11-deoxycorticosterone for the CYP11B2 assay or 250 nM 11-deoxycortisol for the CYP11B1 assay). The reaction was carried out for 3 hours at 37° C., 5% CO2 and was stopped by harvesting the supernatants. The amount of product in the supernatant (aldosterone for CYP11B2 assay and cortisol for the CYP11B1 assay) was measured using HTRF-based assay kit (Aldosterone HTRF-CisBio#64ALDPEB, Cortisol HTRF-CisBio #63IDC002-CORT).
T1 sequence (P19099 whole entry): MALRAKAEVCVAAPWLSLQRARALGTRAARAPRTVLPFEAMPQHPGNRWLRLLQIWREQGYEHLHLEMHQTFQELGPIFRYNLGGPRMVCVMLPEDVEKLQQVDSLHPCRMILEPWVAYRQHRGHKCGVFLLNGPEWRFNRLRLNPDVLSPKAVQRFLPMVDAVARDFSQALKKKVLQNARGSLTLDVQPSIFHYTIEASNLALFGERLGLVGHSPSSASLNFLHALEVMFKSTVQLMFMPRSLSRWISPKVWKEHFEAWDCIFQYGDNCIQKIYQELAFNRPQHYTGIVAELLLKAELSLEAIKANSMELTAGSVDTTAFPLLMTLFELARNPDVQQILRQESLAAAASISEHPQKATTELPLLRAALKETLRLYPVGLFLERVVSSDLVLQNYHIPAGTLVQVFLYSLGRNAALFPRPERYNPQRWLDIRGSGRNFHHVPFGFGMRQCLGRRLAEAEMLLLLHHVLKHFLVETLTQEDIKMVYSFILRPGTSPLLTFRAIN

| SMILES | IC50 |
| --- | --- |
| CC(C)C(=O)N1CCc2cc(-c3cncc4ccccc34)ccc21 | 30 nM |
| O=C(N1CCc2cc(-c3cncc(F)c3)cc(Cl)c21)C(F)(F)F | 10.6 nM |
| CC(=O)N1CCc2cc(-c3cnccc3C)cc(F)c21 | 0.2 nM |

The remaining molecules from weak to strong by IC50, led by results:

| IC50 | SMILES |
| --- | --- |
| 17.4 nM | O=C(N1CCc2cc(-c3cncc(F)c3)cc(F)c21)C(F)(F)F |
| 1.4 nM | CC(=O)N1CCc2cc(-c3cncc(F)c3C)cc(Cl)c21 |
